US20210308211A1, “METHOD OF TREATING VIRAL INFECTIONS” (priority 2020, published 2021)
Non-standard residues stand in square brackets, D forms with d. Residues, ends and D or L forms follow the SMILES beside them. pS = N[C@@H](COP(=O)(O)O)C(=O)O

Tests used:
[1] = test system: MRL/lpr mice; assay: Survival analysis in MRL/lpr lupus mice; format: in vivo, mouse; conditions: female MRL/lpr mice, intravenous, 20 mice per group; NaCl control 25 weeks
Procedure: It has been determined that this mouse strain carries a mutation in the fas gene. Also, the MRL/lpr is a useful model to study behavioural and cognitive deficits found in autoimmune diseases and the efficacy of immunosuppressive agents [Monneaux et al., 2003, Eur. J. Immunol. 33, 287-296].
Five-week-old female MRL/lpr mice received P140 or peptide P140(MO) intravenously as described (Monneaux et al., 2003, Eur. J. Immunol. 33, 287-296). All experimental protocols were carried out with the approval of the local Institutional Animal Care and Use Committee (CREMEAS). As control, mice were injected with NaCl.
Twenty mice were used for each peptide or NaCl.
Statistical tests were performed using GraphPad Prism version 5.0. The two-way ANOVA test was used to analyze statistical significance of proteinuria differences between control and peptide-treated groups of mice. Survival of control and P140 analogue-treated female MRL/lpr mice was analyzed by the Kaplan-Meier method, and the significance of differences was determined by the log-rank test. For the other variables, statistical significance was assessed using the Student's t-test. p values less than 0.05 were considered significant.

[2] = test system: MRL/lpr B cells; conditions: cited from earlier work
[3] = test system: Lewis rats; assay: Chronic-EAN rat model of CIDP; conditions: 100 μg/rat i.p.
Procedure: Male Lewis rats, 7-8 weeks old, weighing 250-270 g, purchased from Charles River (Domaine des Oncins, L′Arbresle, France) were used.
Body weight and clinical scores are assessed daily until 60 days post-immunization (dpi). Severity of paresis is graded as follows: 0=no illness; 1=flaccid tail; 2=moderate paraparesis; 3=severe paraparesis; 4=tetraparesis; 5=death.
100 μg/rat P140 peptide in 500 μL water/saline (1:10) were intraperitoneally injected at 5, 7, 9, 13 dpi and 3 times per week from 22 dpi until the end of the study.

[4] = test system: peripheral T cells from lupus patients; conditions: cited from earlier work
[5] = target: T1, HSC70 protein (Bos taurus, UniProt P19120); assay: BIAcore binding of peptides to immobilized HSC70; set-up: species or system bovine
T1 construct: purchased Stressgen
T1 sequence (P19120 whole entry): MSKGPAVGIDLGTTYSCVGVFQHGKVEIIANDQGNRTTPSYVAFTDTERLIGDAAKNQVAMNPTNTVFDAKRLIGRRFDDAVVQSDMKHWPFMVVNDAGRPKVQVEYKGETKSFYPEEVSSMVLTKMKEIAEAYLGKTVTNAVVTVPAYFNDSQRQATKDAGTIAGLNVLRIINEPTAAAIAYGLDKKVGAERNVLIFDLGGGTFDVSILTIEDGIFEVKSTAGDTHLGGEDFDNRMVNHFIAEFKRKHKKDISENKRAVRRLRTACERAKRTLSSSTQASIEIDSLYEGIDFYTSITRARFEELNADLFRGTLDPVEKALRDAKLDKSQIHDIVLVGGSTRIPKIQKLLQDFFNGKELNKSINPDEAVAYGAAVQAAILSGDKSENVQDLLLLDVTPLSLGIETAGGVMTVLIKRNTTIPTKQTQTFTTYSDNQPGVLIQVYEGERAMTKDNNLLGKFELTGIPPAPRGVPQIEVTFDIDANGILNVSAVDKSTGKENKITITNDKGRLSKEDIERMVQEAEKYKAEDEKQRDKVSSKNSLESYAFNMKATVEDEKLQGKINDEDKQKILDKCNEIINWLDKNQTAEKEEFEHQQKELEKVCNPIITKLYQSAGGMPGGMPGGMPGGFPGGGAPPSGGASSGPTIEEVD
Procedure: BIAcore 3000 system (Biacore AB) was used to evaluate the binding of P140 peptides to HSC70 protein (Page et al., 2009, and 2011). Sensor chip CM5, surfactant P20, amine coupling kit containing N-hydroxysuccinimide (NHS) and N-ethyl-N′-dimethylaminopropyl carbodiimide (EDC), 2-(2-pyridinyldithio)ethaneamine (PDEA) and ethanolamine were from Biacore AB. Biosensor assays were performed with HBS-EP buffer as running buffer (10 mM HEPES, 150 mM NaCl, 3 mM EDTA, 0.005% surfactant P20, pH 7.4). The compounds were diluted in the running buffer. The sensor chip surface was regenerated after each experiment by injecting 10 μL of 10 mM HCl. Recombinant bovine HSC70 (Stressgen) was immobilized on flow cells of a CM5 sensor chip through its thiol groups using 35 μL PDEA in 50 mM borate buffer, pH 8.3 on the NHS/EDC-activated matrix. Then, 35 μL of HSC70 (100 μg/mL in formate buffer, pH 4.3) were injected until a response of 13,000 response units (RU) corresponding to 13 ng/mm^2 of HSC70 was immobilized. Twenty μL of a 50 mM cysteine/1 M NaCl solution was used to saturate unoccupied sites on the chip. The direct binding measurement of P140 peptides to HSC70 was carried out at 25° C. with a constant flow rate of 20 μL/min. P140 peptide and analogues were injected in the flux at different concentrations for 3 min, followed by a dissociation phase of 3 min. The kinetic parameters were calculated using the BIAeval 3.1 software on a personal computer. Analysis was performed using the simple 1:1 Langmuir binding model. The specific binding profiles were obtained after subtracting the response signal from the control empty channel and from blank-buffer injection. The fitting to each model was judged by the χ^2 value and randomness of residue distribution compared to the theoretical model.

[6] = test system: MRL/lpr mice; assay: Gougerot-Sjögren syndrome model, salivary glands of MRL/lpr mice; format: in vivo, mouse
Procedure: In this study MRL/lpr female 11-12 week old mice were used with 10 mice per group for statistical analysis. Each mouse received a single injection by retro-orbital, 100 μg of peptide P140 of 100 μl in […]. After 5 days, the mouse blood was collected in heparinized tube and salivary glands (GSS) were removed and placed in Eppendorf tubes containing PBS pH 7.4.
The number of foci site (FS) is determined for each mouse. A focus is defined as an aggregate of 50 or more cells.
The level of inflammation SG is determined semiquantitatively by a scoring system (0-3 scale): Grade 0: no inflammatory cells; Grade 1: few perivascular inflammatory and periductal Infiltrates (<100 cells); Grade 2: moderate number of perivascular inflammatory and periductal Infiltrates (100-500 cells); Grade 3: extensive inflammation with inflammatory foci broad (>500 cells).
Cells of total salivary glands stained with fluorescently were labeled antibodies for 40 min at 4° C., Were Collected data by FACSCalibur.
The weight of salivary glands Was Measured after-excision. DNase I (1 mg/ml) and collagenase D (50 μg/ml) were used to digest the salivary glands. Total cell counts were evaluated after the digestion.
The MRL/lpr mice (10 mice per arm) were injected with peptide P140 (100 μl/mouse iv). Five days after injection the mice were sacrificed and SGs collected as indicated above. The tissue was cut by the cryostat sections of 5 μm. The sections were labeled with hematoxylin/eosin staining is the method most frequently used in tissue histology. The level of inflammation and the number of FS were determined (FIGS. 17 and 18). Representative pictures are from sample control group 4 and group Treated sample (Bar 500 μm).

[7] = 5 days after one single iv injection
[8] = 5 days after one single iv injection, flow cytometry

CC[C@H](C)[C@H](NC(=O)[C@H](Cc1ccccc1)NC(=O)[C@H](C)NC(=O)[C@H](Cc1ccc(O)cc1)NC(=O)CNC(=O)[C@H](CCCNC(=N)N)NC(=O)[C@@H]1CCCN1C(=O)[C@H](CCCCN)NC(=O)CNC(=O)[C@H](COP(=O)(O)O)NC(=O)[C@H](CCCNC(=N)N)NC(=O)[C@H](CCCCN)NC(=O)[C@H](CO)NC(=O)[C@H](Cc1ccc(O)cc1)NC(=O)[C@@H](NC(=O)[C@H](CCSC)NC(=O)[C@H](Cc1c[nH]cn1)NC(=O)[C@@H](NC(=O)[C@@H](N)CCCNC(=N)N)[C@@H](C)CC)C(C)C)C(=O)N[C@@H](CCC(=O)O)C(=O)N[C@@H](Cc1ccc(O)cc1)C(=O)O [Compound P140] (H-RIHMVYSKR[pS]GKPRGYAFIEY-OH; N-terminus and C-terminus assumed)
Median survival [1]: 29 weeks
Autophagy markers SQSTM1 and MAP1LC3 ([2]; MRL/lpr B cells after P140 treatment (Page et al., 2011)): accumulation
Expression of HSPA8 and LAMP-2A ([2]; MRL/lpr B cells after treating mice (Page et al., 2011; Macri et al., in press)): down-regulated
Chronicity of the disease [3]: seems abolish the chronicity
Maximal clinical scores ([3]; compared to untreated rats): decreased
Onset of the disease ([3]; compared to untreated rats): delayed
Weight loss during the disease course ([3]; compared to untreated rats): less important
Proliferation of peripheral T cells from lupus patients ([4]; ex vivo (Monneaux et al., 2005)): does not induce proliferation
Secretion of regulatory cytokine IL-10 in cell cultures ([4]; ex vivo, T cells from lupus patients (Monneaux et al., 2005)): high levels
Rmax (RU) ([5]; 25° C., 1:1 Langmuir model): 83.3 RU
kon ([5]; 25° C., 1:1 Langmuir model, analyte 1.56-25 μM, read-out: ka): 450 M⁻¹ s⁻¹
Affinity for HSC70, oxidized vs non-oxidized peptide (in words) ([5]; P140 compared with P140 M(O)): not statistically different
Req (RU) ([5]; peptide 1.56 μM): 15.3 RU
Req (RU) ([5]; peptide 3.12 μM): 25.8 RU
Req (RU) ([5]; peptide 6.25 μM): 39.5 RU
Req (RU) ([5]; peptide 12.5 μM): 53.6 RU
Req (RU) ([5]; peptide 25 μM): 65.2 RU
kobs ([5]; peptide 25 μM): 0.0144 s⁻¹
Lymphocytic infiltration in the SGs ([6]; 5 days after one single administration, hematoxylin/eosin): significantly reduced
Total number of cells present in the SGs [6, 7]: no apparent effect
Weight of SGs (salivary glands) [6, 7]: no statistically significant effect
CD4+T cells in SGs [6, 8]: decreased
Total number of B cells in SGs [6, 8]: no statistically significant effect
